Source: ChEMBL document CHEMBL1201862, “PubChem BioAssay data set” (2004)
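Cells were grown in 96-well plates and exposed to each compound for 48 hours at five concentrations; endpoints were interpolated linearly between bracketing concentrations, or set to the highest concentration if not reached. GI50 marks 50% less growth.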 Activity calls are given as the source filed them. No stated cut-off is given here; in the data, active = GI50 up to about 1.1 µM and inactive = higher.

Tests used:
Assay in all cases: NCI tumour cell line growth inhibition, 48 h
RXF 393 = system: RXF 393
OVCAR-3 = system: OVCAR-3
UACC-257 = system: UACC-257
SW-620 = system: SW-620
OVCAR-5 = system: OVCAR-5
MCF7 = system: MCF7
EKVX = system: EKVX
HCC 2998 = system: HCC 2998
KM12 = system: KM12
786-0 = system: 786-0
TK-10 = system: TK-10
IGROV-1 = system: IGROV-1
MDA-N = system: MDA-N
SK-MEL-5 = system: SK-MEL-5
M14 = system: M14
NCI-H522 = system: NCI-H522
UACC-62 = system: UACC-62
U-251 = system: U-251
SNB-75 = system: SNB-75
SNB-19 = system: SNB-19

Measured: GI50

O=C(O)c1nn[nH]c1Cl
inactive: RXF 393 > 100 µM | OVCAR-3 > 100 µM | UACC-257 > 100 µM | SW-620 > 100 µM | OVCAR-5 > 100 µM | MCF7 > 100 µM | EKVX > 100 µM | HCC 2998 > 100 µM | KM12 > 100 µM | 786-0 > 100 µM | TK-10 > 100 µM | IGROV-1 > 100 µM | MDA-N > 100 µM | SK-MEL-5 > 100 µM | M14 > 100 µM | NCI-H522 > 100 µM | UACC-62 > 100 µM | U-251 > 100 µM | SNB-75 > 100 µM

O=C(Nc1sccc1S(=O)(=O)c1ccc(Cl)cc1)c1ccccc1
inactive: RXF 393 > 100 µM | OVCAR-3 > 100 µM | UACC-257 85.1 µM | SW-620 > 100 µM | OVCAR-5 > 100 µM | MCF7 > 100 µM | SNB-19 > 100 µM | EKVX > 100 µM | KM12 > 100 µM | 786-0 > 100 µM | TK-10 40.1 µM | IGROV-1 > 100 µM | MDA-N > 100 µM | SK-MEL-5 > 100 µM | M14 > 100 µM | NCI-H522 > 100 µM | UACC-62 > 100 µM | U-251 > 100 µM | SNB-75 98.6 µM

CC(C)[Si](OCC/C=C/C1CCC(=O)C1C(O)C1CCCCC1)(C(C)C)C(C)C (stereo unspecified)
inactive: RXF 393 8.89 µM | OVCAR-3 16.5 µM | UACC-257 15.4 µM | SW-620 16 µM | OVCAR-5 18.2 µM | MCF7 15.9 µM | SNB-19 17.7 µM | EKVX 15.5 µM | HCC 2998 8.99 µM | KM12 15.9 µM | 786-0 15.9 µM | TK-10 17.9 µM | IGROV-1 15.1 µM | MDA-N 19.2 µM | SK-MEL-5 14.3 µM | M14 17.2 µM | NCI-H522 12 µM | UACC-62 14.9 µM | U-251 15.8 µM | SNB-75 15.2 µM

Cn1c(=O)c2[nH]c(N=O)nc2n(C)c1=O
inactive: RXF 393 > 100 µM | OVCAR-3 > 100 µM | UACC-257 > 100 µM | SW-620 > 100 µM | OVCAR-5 > 100 µM | MCF7 > 100 µM | EKVX > 100 µM | HCC 2998 > 100 µM | KM12 > 100 µM | 786-0 > 100 µM | TK-10 > 100 µM | IGROV-1 > 100 µM | MDA-N > 100 µM | M14 > 100 µM | NCI-H522 > 100 µM | UACC-62 > 100 µM | U-251 > 100 µM | SNB-75 > 100 µM

COc1cc(-c2ccccc2)cn2c1nc1ccccc12
inactive: RXF 393 17.3 µM | OVCAR-3 16.4 µM | UACC-257 22.7 µM | SW-620 35 µM | OVCAR-5 15 µM | MCF7 17.1 µM | SNB-19 23.1 µM | HCC 2998 15.9 µM | KM12 17.9 µM | 786-0 15.7 µM | IGROV-1 25.2 µM | MDA-N 17.7 µM | SK-MEL-5 18.5 µM | M14 20.3 µM | NCI-H522 16.5 µM | UACC-62 18.7 µM | U-251 20 µM | SNB-75 17.6 µM

O/N=C1\CC2(N3CCOCC3)CCC1(c1ccccc1)CC2
inactive: RXF 393 > 100 µM | OVCAR-3 > 100 µM | UACC-257 > 100 µM | SW-620 > 100 µM | OVCAR-5 > 100 µM | MCF7 > 100 µM | SNB-19 > 100 µM | EKVX > 100 µM | HCC 2998 > 100 µM | KM12 > 100 µM | 786-0 > 100 µM | TK-10 > 100 µM | IGROV-1 > 100 µM | MDA-N > 100 µM | SK-MEL-5 > 100 µM | M14 > 100 µM | NCI-H522 > 100 µM | UACC-62 > 100 µM | U-251 > 100 µM | SNB-75 > 100 µM

COc1ccc(/C=C(/C#N)C(N)=O)c(OC)c1
inactive: RXF 393 > 100 µM | OVCAR-3 > 100 µM | UACC-257 89.5 µM | SW-620 79.3 µM | OVCAR-5 > 100 µM | MCF7 44 µM | SNB-19 > 100 µM | EKVX > 100 µM | KM12 > 100 µM | 786-0 > 100 µM | TK-10 > 100 µM | IGROV-1 > 100 µM | MDA-N 19.3 µM | SK-MEL-5 50.9 µM | M14 41.3 µM | NCI-H522 > 100 µM | UACC-62 42.6 µM | U-251 > 100 µM | SNB-75 72.1 µM

CC(C)(C)OC(=O)NC(Cc1ccc(OCc2ccccc2)cn1)C(N)=O (stereo unspecified)
inactive: RXF 393 > 100 µM | OVCAR-3 94.8 µM | UACC-257 75.2 µM | SW-620 > 100 µM | OVCAR-5 > 100 µM | MCF7 46.3 µM | SNB-19 > 100 µM | EKVX > 100 µM | HCC 2998 > 100 µM | KM12 > 100 µM | 786-0 > 100 µM | TK-10 > 100 µM | IGROV-1 > 100 µM | MDA-N 68.5 µM | SK-MEL-5 26 µM | NCI-H522 80 µM | U-251 > 100 µM | SNB-75 > 100 µM

Cc1ccc(C(=O)c2[nH]c(NCc3ccccc3)c(C(=S)Nc3ccccc3)c2N)cc1
inactive: RXF 393 5.78 µM | OVCAR-3 11.8 µM | UACC-257 5.75 µM | SW-620 2.38 µM | OVCAR-5 14 µM | MCF7 2.88 µM | SNB-19 14.7 µM | EKVX 13.6 µM | HCC 2998 1.29 µM | KM12 2.28 µM | 786-0 5.9 µM | TK-10 11.2 µM | IGROV-1 7.35 µM | MDA-N 3.51 µM | M14 1.95 µM | NCI-H522 2.21 µM | UACC-62 11.8 µM | U-251 4.04 µM | SNB-75 4.85 µM

CN1C(=O)c2ccc3ccccc3c2C1=O
inactive: RXF 393 30.8 µM | OVCAR-3 > 100 µM | UACC-257 > 100 µM | SW-620 > 100 µM | OVCAR-5 > 100 µM | MCF7 > 100 µM | SNB-19 > 100 µM | EKVX 14 µM | HCC 2998 > 100 µM | KM12 > 100 µM | 786-0 > 100 µM | TK-10 > 100 µM | IGROV-1 > 100 µM | MDA-N > 100 µM | SK-MEL-5 > 100 µM | M14 > 100 µM | NCI-H522 86.1 µM | UACC-62 > 100 µM | U-251 > 100 µM | SNB-75 27.9 µM

C=C(Cl)CN1c2ccccc2C=Cc2ccccc21
inactive: RXF 393 13 µM | OVCAR-3 15.7 µM | UACC-257 16.3 µM | OVCAR-5 19.9 µM | MCF7 15.2 µM | SNB-19 22.5 µM | EKVX 19.1 µM | HCC 2998 17.6 µM | KM12 11 µM | 786-0 14.2 µM | TK-10 48.3 µM | IGROV-1 16.1 µM | MDA-N 15 µM | SK-MEL-5 7.23 µM | M14 17 µM | NCI-H522 21.6 µM | UACC-62 10.1 µM | U-251 10.1 µM | SNB-75 24.7 µM

CC(=O)OC1COC(n2nc(N)nc2C)C(OC(C)=O)C1OC(C)=O (stereo unspecified)
inactive: RXF 393 > 100 µM | OVCAR-3 > 100 µM | UACC-257 > 100 µM | SW-620 > 100 µM | OVCAR-5 > 100 µM | MCF7 > 100 µM | SNB-19 > 100 µM | EKVX > 100 µM | HCC 2998 > 100 µM | KM12 > 100 µM | 786-0 > 100 µM | TK-10 > 100 µM | IGROV-1 > 100 µM | MDA-N > 100 µM | SK-MEL-5 > 100 µM | M14 > 100 µM | NCI-H522 > 100 µM | UACC-62 > 100 µM | U-251 > 100 µM | SNB-75 > 100 µM

O=C(/C(=C(/Br)I)c1ccccc1)c1ccccc1
inactive: RXF 393 16.8 µM | OVCAR-3 21.4 µM | UACC-257 17.8 µM | OVCAR-5 48.6 µM | MCF7 30.9 µM | SNB-19 38.2 µM | EKVX 29 µM | HCC 2998 13.6 µM | KM12 19.5 µM | 786-0 18.2 µM | TK-10 27.2 µM | IGROV-1 29.7 µM | MDA-N 28.5 µM | SK-MEL-5 14.6 µM | M14 16.3 µM | UACC-62 18.4 µM | U-251 25.8 µM | SNB-75 26.3 µM

COc1ccc2c(c1)/C(=C(\C(Cl)=C(Cl)Cl)[N+](=O)[O-])N2
inactive: RXF 393 39.5 µM | OVCAR-3 28.2 µM | UACC-257 > 100 µM | SW-620 73.8 µM | OVCAR-5 > 100 µM | MCF7 > 100 µM | SNB-19 > 100 µM | EKVX 26.7 µM | HCC 2998 > 100 µM | KM12 > 100 µM | 786-0 69.8 µM | TK-10 > 100 µM | IGROV-1 > 100 µM | MDA-N 83.2 µM | SK-MEL-5 41 µM | M14 > 100 µM | NCI-H522 25.3 µM | UACC-62 > 100 µM | U-251 91.2 µM | SNB-75 35.7 µM

c1csc(-c2ccsc2-c2cccs2)c1
inactive: RXF 393 44.9 µM | OVCAR-3 > 100 µM | UACC-257 > 100 µM | SW-620 80.4 µM | OVCAR-5 > 100 µM | MCF7 34.6 µM | EKVX > 100 µM | HCC 2998 53.7 µM | KM12 47.6 µM | 786-0 > 100 µM | TK-10 > 100 µM | IGROV-1 > 100 µM | MDA-N 35.8 µM | SK-MEL-5 98.9 µM | M14 59.2 µM | NCI-H522 31.5 µM | UACC-62 > 100 µM | U-251 > 100 µM | SNB-75 54.6 µM
